Experimental data from the supplement of paper PMC8882468.
± gives the standard deviation of the averaged measurements.

These compounds were tested on HCI-010 (organoid from a breast cancer xenograft) (assay: CTG-3D luminescence at 96 h relative to day-0 seeding control (ratio to day 0); higher = more growth / less cytotoxicity; PDxO 3D drug screen, 96 h, CTG-3D normalised to day-0 seeding control.). Settings: 10 µM; days in culture: 65.
With `CC(C)(C(=O)NCC(F)(F)C(F)(F)F)C(=O)N[C@@H]1C(=O)Nc2ccccc2-c2ccccc21` the “CTG-3D luminescence at 96 h” value was 1.58.
`C=CC(=O)N1CCC[C@@H](n2nc(-c3ccc(Oc4ccccc4)cc3)c3c(N)ncnc32)C1` [ibrutinib] was tested, and the “CTG-3D luminescence at 96 h” value was 0.888.
`CNC(=O)c1cccc(-c2ccc3c(N4CCOC[C@@H]4C)nc(N4CCOC[C@@H]4C)nc3n2)c1` [vistusertib] was tested, and the “CTG-3D luminescence at 96 h” value was 0.543.
In the case of `CCN(c1cc(C#CCN2CCOCC2)cc(C(=O)NCc2c(C)cc(C)[nH]c2=O)c1C)[C@H]1CC[C@H](N(C)CCOC)CC1`, the “CTG-3D luminescence at 96 h” value is reported as 1.58.

Same assay, conditions: 10 µM; days in culture: 103
For `CC(C)(C(=O)NCC(F)(F)C(F)(F)F)C(=O)N[C@@H]1C(=O)Nc2ccccc2-c2ccccc21`, the “CTG-3D luminescence at 96 h” value was 2.72.
With `C=CC(=O)N1CCC[C@@H](n2nc(-c3ccc(Oc4ccccc4)cc3)c3c(N)ncnc32)C1` [ibrutinib] the “CTG-3D luminescence at 96 h” value was 1.51.
With `CNC(=O)c1cccc(-c2ccc3c(N4CCOC[C@@H]4C)nc(N4CCOC[C@@H]4C)nc3n2)c1` [vistusertib] the “CTG-3D luminescence at 96 h” value was 1.24.
In the case of `CCN(c1cc(C#CCN2CCOCC2)cc(C(=O)NCc2c(C)cc(C)[nH]c2=O)c1C)[C@H]1CC[C@H](N(C)CCOC)CC1`, the “CTG-3D luminescence at 96 h” value is reported as 2.84.

Same assay, conditions: 100 µM; days in culture: 52
In the case of `CC(C)(C(=O)NCC(F)(F)C(F)(F)F)C(=O)N[C@@H]1C(=O)Nc2ccccc2-c2ccccc21`, the “CTG-3D luminescence at 96 h” value is reported as 1.24.
`C=CC(=O)N1CCC[C@@H](n2nc(-c3ccc(Oc4ccccc4)cc3)c3c(N)ncnc32)C1` [ibrutinib] was tested, and the “CTG-3D luminescence at 96 h” value was -0.00732.
With `CNC(=O)c1cccc(-c2ccc3c(N4CCOC[C@@H]4C)nc(N4CCOC[C@@H]4C)nc3n2)c1` [vistusertib] the “CTG-3D luminescence at 96 h” value was 0.17.
For `CCN(c1cc(C#CCN2CCOCC2)cc(C(=O)NCc2c(C)cc(C)[nH]c2=O)c1C)[C@H]1CC[C@H](N(C)CCOC)CC1`, the “CTG-3D luminescence at 96 h” value was 1.5.

Same assay, conditions: 100 µM; days in culture: 65
For `CC(C)(C(=O)NCC(F)(F)C(F)(F)F)C(=O)N[C@@H]1C(=O)Nc2ccccc2-c2ccccc21`, the “CTG-3D luminescence at 96 h” value was 0.419.
For `C=CC(=O)N1CCC[C@@H](n2nc(-c3ccc(Oc4ccccc4)cc3)c3c(N)ncnc32)C1` [ibrutinib], the “CTG-3D luminescence at 96 h” value was -0.00863.
`CNC(=O)c1cccc(-c2ccc3c(N4CCOC[C@@H]4C)nc(N4CCOC[C@@H]4C)nc3n2)c1` [vistusertib] was tested, and the “CTG-3D luminescence at 96 h” value was 0.0432.
For `CCN(c1cc(C#CCN2CCOCC2)cc(C(=O)NCc2c(C)cc(C)[nH]c2=O)c1C)[C@H]1CC[C@H](N(C)CCOC)CC1`, the “CTG-3D luminescence at 96 h” value was 1.05.

Same assay, conditions: 100 µM; days in culture: 103
`CC(C)(C(=O)NCC(F)(F)C(F)(F)F)C(=O)N[C@@H]1C(=O)Nc2ccccc2-c2ccccc21` was tested, and the “CTG-3D luminescence at 96 h” value was 2.02.
`C=CC(=O)N1CCC[C@@H](n2nc(-c3ccc(Oc4ccccc4)cc3)c3c(N)ncnc32)C1` [ibrutinib] was tested, and the “CTG-3D luminescence at 96 h” value was -0.0156.
With `CNC(=O)c1cccc(-c2ccc3c(N4CCOC[C@@H]4C)nc(N4CCOC[C@@H]4C)nc3n2)c1` [vistusertib] the “CTG-3D luminescence at 96 h” value was 0.419.
With `CCN(c1cc(C#CCN2CCOCC2)cc(C(=O)NCc2c(C)cc(C)[nH]c2=O)c1C)[C@H]1CC[C@H](N(C)CCOC)CC1` the “CTG-3D luminescence at 96 h” value was 1.88.

Same assay, conditions: 625 fM; days in culture: 52
With `CC(C)(C(=O)NCC(F)(F)C(F)(F)F)C(=O)N[C@@H]1C(=O)Nc2ccccc2-c2ccccc21` the “CTG-3D luminescence at 96 h” value was 2.2.
`C=CC(=O)N1CCC[C@@H](n2nc(-c3ccc(Oc4ccccc4)cc3)c3c(N)ncnc32)C1` [ibrutinib] was tested, and the “CTG-3D luminescence at 96 h” value was 2.5.
For `CNC(=O)c1cccc(-c2ccc3c(N4CCOC[C@@H]4C)nc(N4CCOC[C@@H]4C)nc3n2)c1` [vistusertib], the “CTG-3D luminescence at 96 h” value was 2.19.
In the case of `CCN(c1cc(C#CCN2CCOCC2)cc(C(=O)NCc2c(C)cc(C)[nH]c2=O)c1C)[C@H]1CC[C@H](N(C)CCOC)CC1`, the “CTG-3D luminescence at 96 h” value is reported as 2.03.

Same assay, conditions: 625 fM; days in culture: 65
With `CC(C)(C(=O)NCC(F)(F)C(F)(F)F)C(=O)N[C@@H]1C(=O)Nc2ccccc2-c2ccccc21` the “CTG-3D luminescence at 96 h” value was 1.79.
In the case of `C=CC(=O)N1CCC[C@@H](n2nc(-c3ccc(Oc4ccccc4)cc3)c3c(N)ncnc32)C1` [ibrutinib], the “CTG-3D luminescence at 96 h” value is reported as 1.69.
With `CNC(=O)c1cccc(-c2ccc3c(N4CCOC[C@@H]4C)nc(N4CCOC[C@@H]4C)nc3n2)c1` [vistusertib] the “CTG-3D luminescence at 96 h” value was 1.68.
For `CCN(c1cc(C#CCN2CCOCC2)cc(C(=O)NCc2c(C)cc(C)[nH]c2=O)c1C)[C@H]1CC[C@H](N(C)CCOC)CC1`, the “CTG-3D luminescence at 96 h” value was 1.8.

Same assay, conditions: 625 fM; days in culture: 103
With `CC(C)(C(=O)NCC(F)(F)C(F)(F)F)C(=O)N[C@@H]1C(=O)Nc2ccccc2-c2ccccc21` the “CTG-3D luminescence at 96 h” value was 3.05.
`C=CC(=O)N1CCC[C@@H](n2nc(-c3ccc(Oc4ccccc4)cc3)c3c(N)ncnc32)C1` [ibrutinib] was tested, and the “CTG-3D luminescence at 96 h” value was 3.23.
For `CNC(=O)c1cccc(-c2ccc3c(N4CCOC[C@@H]4C)nc(N4CCOC[C@@H]4C)nc3n2)c1` [vistusertib], the “CTG-3D luminescence at 96 h” value was 3.04.
With `CCN(c1cc(C#CCN2CCOCC2)cc(C(=O)NCc2c(C)cc(C)[nH]c2=O)c1C)[C@H]1CC[C@H](N(C)CCOC)CC1` the “CTG-3D luminescence at 96 h” value was 2.7.

The compounds below were run on HCI-011.E2 (organoid from an ER-positive breast cancer xenograft) in the same assay as above. Settings: 12.5 pM.
In the case of `CC(C)(C(=O)NCC(F)(F)C(F)(F)F)C(=O)N[C@@H]1C(=O)Nc2ccccc2-c2ccccc21`, the “CTG-3D luminescence at 96 h” value is reported as 1.55 ± 0.018.
`C=CC(=O)N1CCC[C@@H](n2nc(-c3ccc(Oc4ccccc4)cc3)c3c(N)ncnc32)C1` [ibrutinib] was tested, and the “CTG-3D luminescence at 96 h” value was 1.7 ± 0.12.
`CNC(=O)c1cccc(-c2ccc3c(N4CCOC[C@@H]4C)nc(N4CCOC[C@@H]4C)nc3n2)c1` [vistusertib] was tested, and the “CTG-3D luminescence at 96 h” value was 1.477 ± 0.0098.
For `CCN(c1cc(C#CCN2CCOCC2)cc(C(=O)NCc2c(C)cc(C)[nH]c2=O)c1C)[C@H]1CC[C@H](N(C)CCOC)CC1`, the “CTG-3D luminescence at 96 h” value was 1.4 ± 0.56.

Same assay, conditions: 12.5 pM; days in culture: 74
For `CC(C)(C(=O)NCC(F)(F)C(F)(F)F)C(=O)N[C@@H]1C(=O)Nc2ccccc2-c2ccccc21`, the “CTG-3D luminescence at 96 h” value was 2.34.
For `C=CC(=O)N1CCC[C@@H](n2nc(-c3ccc(Oc4ccccc4)cc3)c3c(N)ncnc32)C1` [ibrutinib], the “CTG-3D luminescence at 96 h” value was 2.44.
For `CNC(=O)c1cccc(-c2ccc3c(N4CCOC[C@@H]4C)nc(N4CCOC[C@@H]4C)nc3n2)c1` [vistusertib], the “CTG-3D luminescence at 96 h” value was 3.1.
For `CCN(c1cc(C#CCN2CCOCC2)cc(C(=O)NCc2c(C)cc(C)[nH]c2=O)c1C)[C@H]1CC[C@H](N(C)CCOC)CC1`, the “CTG-3D luminescence at 96 h” value was 1.76.

Same assay, conditions: 0.00025 µM
`CC(C)(C(=O)NCC(F)(F)C(F)(F)F)C(=O)N[C@@H]1C(=O)Nc2ccccc2-c2ccccc21` was tested, and the “CTG-3D luminescence at 96 h” value was 1.61 ± 0.057.
In the case of `C=CC(=O)N1CCC[C@@H](n2nc(-c3ccc(Oc4ccccc4)cc3)c3c(N)ncnc32)C1` [ibrutinib], the “CTG-3D luminescence at 96 h” value is reported as 1.71 ± 0.029.
`CNC(=O)c1cccc(-c2ccc3c(N4CCOC[C@@H]4C)nc(N4CCOC[C@@H]4C)nc3n2)c1` [vistusertib] was tested, and the “CTG-3D luminescence at 96 h” value was 1.841 ± 0.016.
`CCN(c1cc(C#CCN2CCOCC2)cc(C(=O)NCc2c(C)cc(C)[nH]c2=O)c1C)[C@H]1CC[C@H](N(C)CCOC)CC1` was tested, and the “CTG-3D luminescence at 96 h” value was 1.39 ± 0.11.

Same assay, conditions: 0.00025 µM; days in culture: 74
`CC(C)(C(=O)NCC(F)(F)C(F)(F)F)C(=O)N[C@@H]1C(=O)Nc2ccccc2-c2ccccc21` was tested, and the “CTG-3D luminescence at 96 h” value was 1.83.
`C=CC(=O)N1CCC[C@@H](n2nc(-c3ccc(Oc4ccccc4)cc3)c3c(N)ncnc32)C1` [ibrutinib] was tested, and the “CTG-3D luminescence at 96 h” value was 2.67.
With `CNC(=O)c1cccc(-c2ccc3c(N4CCOC[C@@H]4C)nc(N4CCOC[C@@H]4C)nc3n2)c1` [vistusertib] the “CTG-3D luminescence at 96 h” value was 2.54.
`CCN(c1cc(C#CCN2CCOCC2)cc(C(=O)NCc2c(C)cc(C)[nH]c2=O)c1C)[C@H]1CC[C@H](N(C)CCOC)CC1` was tested, and the “CTG-3D luminescence at 96 h” value was 2.24.

Same assay, conditions: 0.005 µM
In the case of `CC(C)(C(=O)NCC(F)(F)C(F)(F)F)C(=O)N[C@@H]1C(=O)Nc2ccccc2-c2ccccc21`, the “CTG-3D luminescence at 96 h” value is reported as 1.49 ± 0.27.
In the case of `C=CC(=O)N1CCC[C@@H](n2nc(-c3ccc(Oc4ccccc4)cc3)c3c(N)ncnc32)C1` [ibrutinib], the “CTG-3D luminescence at 96 h” value is reported as 1.45 ± 0.1.
For `CNC(=O)c1cccc(-c2ccc3c(N4CCOC[C@@H]4C)nc(N4CCOC[C@@H]4C)nc3n2)c1` [vistusertib], the “CTG-3D luminescence at 96 h” value was 1.52 ± 0.22.
With `CCN(c1cc(C#CCN2CCOCC2)cc(C(=O)NCc2c(C)cc(C)[nH]c2=O)c1C)[C@H]1CC[C@H](N(C)CCOC)CC1` the “CTG-3D luminescence at 96 h” value was 1.48 ± 0.29.

Same assay, conditions: 0.005 µM; days in culture: 74
For `CC(C)(C(=O)NCC(F)(F)C(F)(F)F)C(=O)N[C@@H]1C(=O)Nc2ccccc2-c2ccccc21`, the “CTG-3D luminescence at 96 h” value was 1.89.
`C=CC(=O)N1CCC[C@@H](n2nc(-c3ccc(Oc4ccccc4)cc3)c3c(N)ncnc32)C1` [ibrutinib] was tested, and the “CTG-3D luminescence at 96 h” value was 1.96.
For `CNC(=O)c1cccc(-c2ccc3c(N4CCOC[C@@H]4C)nc(N4CCOC[C@@H]4C)nc3n2)c1` [vistusertib], the “CTG-3D luminescence at 96 h” value was 2.03.
With `CCN(c1cc(C#CCN2CCOCC2)cc(C(=O)NCc2c(C)cc(C)[nH]c2=O)c1C)[C@H]1CC[C@H](N(C)CCOC)CC1` the “CTG-3D luminescence at 96 h” value was 2.14.

Same assay, conditions: 0.1 µM
`CC(C)(C(=O)NCC(F)(F)C(F)(F)F)C(=O)N[C@@H]1C(=O)Nc2ccccc2-c2ccccc21` was tested, and the “CTG-3D luminescence at 96 h” value was 1.97 ± 0.57.
For `C=CC(=O)N1CCC[C@@H](n2nc(-c3ccc(Oc4ccccc4)cc3)c3c(N)ncnc32)C1` [ibrutinib], the “CTG-3D luminescence at 96 h” value was 2 ± 0.15.
For `CNC(=O)c1cccc(-c2ccc3c(N4CCOC[C@@H]4C)nc(N4CCOC[C@@H]4C)nc3n2)c1` [vistusertib], the “CTG-3D luminescence at 96 h” value was 1.23 ± 0.041.
`CCN(c1cc(C#CCN2CCOCC2)cc(C(=O)NCc2c(C)cc(C)[nH]c2=O)c1C)[C@H]1CC[C@H](N(C)CCOC)CC1` was tested, and the “CTG-3D luminescence at 96 h” value was 1.74 ± 0.69.

Same assay, conditions: 0.1 µM; days in culture: 74
For `CC(C)(C(=O)NCC(F)(F)C(F)(F)F)C(=O)N[C@@H]1C(=O)Nc2ccccc2-c2ccccc21`, the “CTG-3D luminescence at 96 h” value was 1.8.
In the case of `C=CC(=O)N1CCC[C@@H](n2nc(-c3ccc(Oc4ccccc4)cc3)c3c(N)ncnc32)C1` [ibrutinib], the “CTG-3D luminescence at 96 h” value is reported as 2.48.
In the case of `CNC(=O)c1cccc(-c2ccc3c(N4CCOC[C@@H]4C)nc(N4CCOC[C@@H]4C)nc3n2)c1` [vistusertib], the “CTG-3D luminescence at 96 h” value is reported as 1.
In the case of `CCN(c1cc(C#CCN2CCOCC2)cc(C(=O)NCc2c(C)cc(C)[nH]c2=O)c1C)[C@H]1CC[C@H](N(C)CCOC)CC1`, the “CTG-3D luminescence at 96 h” value is reported as 1.77.
